Source: ChEMBL document CHEMBL1201862, “PubChem BioAssay data set” (2004)
Active and inactive are the calls of the source.

Assays:
[1] = test system: HeLa; assay: Cytotoxicity counterscreen assay for transcriptional activators of heat shock protein 70 (Hsp70). [Related pubchem assays: 1203, 1252 ]; assay type: functional; conditions: Homo sapiens;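 further: cells exposed to compound for 16 hours before readout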
[2] = target: Peroxisome proliferator-activated receptor gamma/Nuclear receptor coactivator 3 (Homo sapiens, UniProt P37231); assay: TR-FRET dose response biochemical High Throughput Screening assay for agonists of the steroid receptor coactivator 3 (SRC-3) recruitment by the peroxisome proliferator-activated receptor gamma (PPAR gamma): non-selective agonists. [Related pubchem assays: 1301 (Confirmation screen.), 1048 (Primary screen.)]; assay type: functional
Peroxisome proliferator-activated receptor gamma/Nuclear receptor coactivator 3, sequence (P37231 whole entry): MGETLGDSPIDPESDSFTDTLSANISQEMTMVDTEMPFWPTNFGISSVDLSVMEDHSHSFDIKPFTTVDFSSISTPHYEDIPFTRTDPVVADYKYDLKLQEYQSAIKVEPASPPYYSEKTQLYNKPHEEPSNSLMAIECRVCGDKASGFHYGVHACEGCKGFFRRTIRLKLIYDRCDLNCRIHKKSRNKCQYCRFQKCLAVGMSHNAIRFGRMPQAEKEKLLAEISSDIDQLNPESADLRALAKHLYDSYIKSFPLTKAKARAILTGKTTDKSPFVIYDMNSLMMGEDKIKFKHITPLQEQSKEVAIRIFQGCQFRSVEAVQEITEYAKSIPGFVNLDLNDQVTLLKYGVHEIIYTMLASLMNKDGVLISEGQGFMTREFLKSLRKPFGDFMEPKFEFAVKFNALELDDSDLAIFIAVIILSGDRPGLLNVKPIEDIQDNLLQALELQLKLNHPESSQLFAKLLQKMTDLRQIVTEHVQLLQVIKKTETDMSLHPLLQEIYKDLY
Peroxisome proliferator-activated receptor gamma/Nuclear receptor coactivator 3, sequence (Q9Y6Q9 whole entry, further chain): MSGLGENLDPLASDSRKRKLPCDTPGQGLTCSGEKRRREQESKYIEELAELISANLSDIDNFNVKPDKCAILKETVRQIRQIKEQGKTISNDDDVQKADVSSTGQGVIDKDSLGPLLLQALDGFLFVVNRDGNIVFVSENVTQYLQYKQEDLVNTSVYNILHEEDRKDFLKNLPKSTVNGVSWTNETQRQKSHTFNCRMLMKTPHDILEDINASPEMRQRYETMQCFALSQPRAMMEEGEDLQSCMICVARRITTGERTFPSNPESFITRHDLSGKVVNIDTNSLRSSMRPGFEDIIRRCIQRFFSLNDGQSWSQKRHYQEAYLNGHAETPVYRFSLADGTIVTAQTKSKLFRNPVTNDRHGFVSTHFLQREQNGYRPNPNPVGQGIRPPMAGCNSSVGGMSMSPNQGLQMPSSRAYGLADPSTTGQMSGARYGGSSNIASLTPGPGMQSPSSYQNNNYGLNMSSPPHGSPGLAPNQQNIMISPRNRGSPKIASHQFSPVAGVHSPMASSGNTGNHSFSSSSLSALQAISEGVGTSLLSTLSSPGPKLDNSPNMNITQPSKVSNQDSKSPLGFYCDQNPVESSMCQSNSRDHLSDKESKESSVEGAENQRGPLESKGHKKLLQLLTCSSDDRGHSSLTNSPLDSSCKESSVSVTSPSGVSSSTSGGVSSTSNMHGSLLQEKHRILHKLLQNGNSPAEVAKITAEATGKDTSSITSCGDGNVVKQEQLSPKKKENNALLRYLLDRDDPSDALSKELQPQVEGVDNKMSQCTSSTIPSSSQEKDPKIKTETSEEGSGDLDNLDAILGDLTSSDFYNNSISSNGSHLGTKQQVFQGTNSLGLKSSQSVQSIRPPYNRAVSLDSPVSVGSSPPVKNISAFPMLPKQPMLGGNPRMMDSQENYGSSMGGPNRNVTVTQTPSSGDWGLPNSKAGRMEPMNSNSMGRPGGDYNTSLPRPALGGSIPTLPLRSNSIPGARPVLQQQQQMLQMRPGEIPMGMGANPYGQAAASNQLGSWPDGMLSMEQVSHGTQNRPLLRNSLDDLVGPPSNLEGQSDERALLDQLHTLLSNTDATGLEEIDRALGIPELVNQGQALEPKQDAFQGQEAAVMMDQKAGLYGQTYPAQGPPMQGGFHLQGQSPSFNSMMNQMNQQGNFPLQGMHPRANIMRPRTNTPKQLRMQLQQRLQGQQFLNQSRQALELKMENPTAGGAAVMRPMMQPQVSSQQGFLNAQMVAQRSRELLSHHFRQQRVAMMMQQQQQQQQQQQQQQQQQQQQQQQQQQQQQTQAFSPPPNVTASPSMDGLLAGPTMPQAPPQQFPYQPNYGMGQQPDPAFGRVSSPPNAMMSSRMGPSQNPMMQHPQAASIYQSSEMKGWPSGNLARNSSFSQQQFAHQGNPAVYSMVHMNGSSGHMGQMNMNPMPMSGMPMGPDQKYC

[3] = target: T1, Mannose-6-phosphate isomerase (Homo sapiens, UniProt P34949); assay: MPI inhibition at elevated mannose 6-phosphate – biochemical, fluorescence intensity, high mannose 6-phosphate, primary screen (AID 1220)
T1 sequence (P34949 whole entry): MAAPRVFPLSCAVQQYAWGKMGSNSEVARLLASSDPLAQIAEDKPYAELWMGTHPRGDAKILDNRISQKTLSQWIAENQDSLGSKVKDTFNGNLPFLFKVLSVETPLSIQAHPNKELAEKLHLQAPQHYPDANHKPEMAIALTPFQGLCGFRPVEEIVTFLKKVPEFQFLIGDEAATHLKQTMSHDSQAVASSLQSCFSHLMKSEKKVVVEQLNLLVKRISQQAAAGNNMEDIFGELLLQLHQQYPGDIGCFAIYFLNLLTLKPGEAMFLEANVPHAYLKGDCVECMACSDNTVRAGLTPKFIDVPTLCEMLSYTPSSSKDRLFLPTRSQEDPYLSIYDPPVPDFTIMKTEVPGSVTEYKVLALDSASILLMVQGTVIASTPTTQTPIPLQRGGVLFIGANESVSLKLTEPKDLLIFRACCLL

[4] = target: Glucose-6-phosphate 1-dehydrogenase (Homo sapiens, UniProt P11413); assay: inhibition of Homo sapiens G6PD, dose series – biochemical, fluorescence, selectivity assay for P. falciparum G6PD inhibitor project, dose response (AID 504792); assay type: functional
[5] = target: Peroxisome proliferator-activated receptor gamma/Nuclear receptor coactivator 2 (Homo sapiens, UniProt P37231); assay: (§1) TR-FRET dose response biochemical High Throughput Screening assay for agonists of the steroid receptor coactivator 2 (SRC-2) recruitment by the peroxisome proliferator-activated receptor gamma (PPAR gamma): non-selective agonists. [Related pubchem assays: 1297, 1032 ]; assay type: functional
Peroxisome proliferator-activated receptor gamma/Nuclear receptor coactivator 2, sequence (P37231 whole entry): as the sequence (P37231 whole entry) above
Peroxisome proliferator-activated receptor gamma/Nuclear receptor coactivator 2, sequence (Q15596 whole entry, further chain): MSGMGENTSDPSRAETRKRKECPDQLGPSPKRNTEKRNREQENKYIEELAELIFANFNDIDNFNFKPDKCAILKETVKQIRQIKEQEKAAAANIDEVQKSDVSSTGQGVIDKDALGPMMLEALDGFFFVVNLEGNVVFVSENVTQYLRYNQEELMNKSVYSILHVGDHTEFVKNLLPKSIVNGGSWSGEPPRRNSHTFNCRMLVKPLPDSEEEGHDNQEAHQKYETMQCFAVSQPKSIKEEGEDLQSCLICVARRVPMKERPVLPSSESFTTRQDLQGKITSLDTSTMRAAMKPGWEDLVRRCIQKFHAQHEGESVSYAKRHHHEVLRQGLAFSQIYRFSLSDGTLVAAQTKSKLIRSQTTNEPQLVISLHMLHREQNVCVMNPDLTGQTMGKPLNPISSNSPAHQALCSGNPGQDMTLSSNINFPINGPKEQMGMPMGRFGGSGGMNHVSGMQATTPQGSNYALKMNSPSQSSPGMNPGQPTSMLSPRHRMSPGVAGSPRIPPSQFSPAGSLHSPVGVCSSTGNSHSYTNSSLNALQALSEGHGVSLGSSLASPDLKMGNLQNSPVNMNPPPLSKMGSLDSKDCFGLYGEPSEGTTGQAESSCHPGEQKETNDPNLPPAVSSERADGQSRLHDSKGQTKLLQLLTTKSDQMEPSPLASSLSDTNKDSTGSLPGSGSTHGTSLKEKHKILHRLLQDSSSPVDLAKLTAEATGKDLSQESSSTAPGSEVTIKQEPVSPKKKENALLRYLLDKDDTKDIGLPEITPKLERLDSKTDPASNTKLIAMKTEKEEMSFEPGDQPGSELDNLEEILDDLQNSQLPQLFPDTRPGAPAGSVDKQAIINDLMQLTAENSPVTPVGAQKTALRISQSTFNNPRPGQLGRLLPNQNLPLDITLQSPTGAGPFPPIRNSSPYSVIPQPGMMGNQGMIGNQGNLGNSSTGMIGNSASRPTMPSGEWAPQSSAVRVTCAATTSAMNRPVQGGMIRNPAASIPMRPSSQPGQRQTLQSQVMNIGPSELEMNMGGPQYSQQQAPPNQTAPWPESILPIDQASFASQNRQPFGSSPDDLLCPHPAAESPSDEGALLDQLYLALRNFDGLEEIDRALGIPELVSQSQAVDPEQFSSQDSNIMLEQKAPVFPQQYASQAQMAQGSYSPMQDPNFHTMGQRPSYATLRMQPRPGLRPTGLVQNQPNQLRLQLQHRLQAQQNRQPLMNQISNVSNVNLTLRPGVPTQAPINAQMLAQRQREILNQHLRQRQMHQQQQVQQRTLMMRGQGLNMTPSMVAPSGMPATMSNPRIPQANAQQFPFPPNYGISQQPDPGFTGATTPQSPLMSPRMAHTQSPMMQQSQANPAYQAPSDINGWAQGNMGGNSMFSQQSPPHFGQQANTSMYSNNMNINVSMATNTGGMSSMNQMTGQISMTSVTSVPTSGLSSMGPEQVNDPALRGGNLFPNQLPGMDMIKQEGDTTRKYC

[6] = target: Peroxisome proliferator-activated receptor gamma/Nuclear receptor coactivator 1 (Homo sapiens, UniProt P37231); assay: as §1, with “1 (SRC-1)” for “2 (SRC-2)”, “assays (depositor defined):AID1300, AID1808, AID504735, AID631]” for “assays: 1297, 1032 ]”; assay type: protein assay
[7] = target: T1, Mannose-6-phosphate isomerase; assay: MPI enzyme activity inhibition – biochemical, fluorescence intensity, coupled assay, primary screen (AID 1209)
[8] = target: 5-hydroxytryptamine receptor 1E (Homo sapiens, UniProt P28566); assay: Counterscreen assay for S1P3 antagonists: Dose response cell-based high throughput screening assay to identify antagonists of the 5-Hydroxytryptamine Receptor Subtype 1E (5HT1E). [Related pubchem assays: 1429, 485 ]; assay type: functional
[9] = target: Sphingosine 1-phosphate receptor 3 (Homo sapiens, UniProt Q99500); assay: Dose response cell-based high throughput screening assay for antagonists of the Sphingosine 1-Phosphate Receptor 3 (S1P3). [Related pubchem assays: 1429, 485 ]; assay type: functional
[10] = CCR5-tropic HIV-1 fusion blockers – cell-based, CCR5-tropic Env, dose response (AID 2279); assay type: functional
[11] = test system: HEK293; assay: NOD2 signaling inhibitors in MDP-stimulated cells, cell-based, uHTS, luminescence (AID 2001); assay type: functional; conditions: Homo sapiens
[12] = test system: HEK293; assay: inhibition of NOD1-driven NF-kB reporter – cell-based, luminescence, uHTS, primary screen (AID 1578); assay type: functional; conditions: Homo sapiens
[13] = target: Neuropeptide Y receptor type 2 (Homo sapiens, UniProt P49146); assay: IC50 for human NPY-Y2 blockade – cell-based, counter-screen for NPY-Y1 antagonist project, dose response (AID 1278); assay type: functional
[14] = NIH-3T3 fibroblast cytotoxicity, dose response, cytotoxicity control, cell-based, fluorescence, Alamar Blue, secondary assay (AID 2327); assay type: functional;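 further: NIH-3T3 mouse fibroblasts cultured with fluconazole at 8 µg/mL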
[15] = test system: HEK293; assay: cells; assay type: functional, cell-based; conditions: Homo sapiens
[16] = target: Neuropeptide Y receptor type 1 (Homo sapiens, UniProt P25929); assay: IC50 of human NPY-Y1 blockers – cell-based, dose response (AID 1277); assay type: functional
[17] = test system: HEK293; assay: cells; assay type: functional, cell-based; conditions: Homo sapiens; remark: listed apart in the source
[18] = target: Nucleotide-binding oligomerization domain-containing protein 2 (Homo sapiens, UniProt Q9HC29); assay: inhibition of NOD2-driven NF-kB reporter – cell-based, luminescence, uHTS, HEK293 (AID 1566); assay type: functional
Nucleotide-binding oligomerization domain-containing protein 2, sequence (Q9HC29 whole entry, the tested form may be a part): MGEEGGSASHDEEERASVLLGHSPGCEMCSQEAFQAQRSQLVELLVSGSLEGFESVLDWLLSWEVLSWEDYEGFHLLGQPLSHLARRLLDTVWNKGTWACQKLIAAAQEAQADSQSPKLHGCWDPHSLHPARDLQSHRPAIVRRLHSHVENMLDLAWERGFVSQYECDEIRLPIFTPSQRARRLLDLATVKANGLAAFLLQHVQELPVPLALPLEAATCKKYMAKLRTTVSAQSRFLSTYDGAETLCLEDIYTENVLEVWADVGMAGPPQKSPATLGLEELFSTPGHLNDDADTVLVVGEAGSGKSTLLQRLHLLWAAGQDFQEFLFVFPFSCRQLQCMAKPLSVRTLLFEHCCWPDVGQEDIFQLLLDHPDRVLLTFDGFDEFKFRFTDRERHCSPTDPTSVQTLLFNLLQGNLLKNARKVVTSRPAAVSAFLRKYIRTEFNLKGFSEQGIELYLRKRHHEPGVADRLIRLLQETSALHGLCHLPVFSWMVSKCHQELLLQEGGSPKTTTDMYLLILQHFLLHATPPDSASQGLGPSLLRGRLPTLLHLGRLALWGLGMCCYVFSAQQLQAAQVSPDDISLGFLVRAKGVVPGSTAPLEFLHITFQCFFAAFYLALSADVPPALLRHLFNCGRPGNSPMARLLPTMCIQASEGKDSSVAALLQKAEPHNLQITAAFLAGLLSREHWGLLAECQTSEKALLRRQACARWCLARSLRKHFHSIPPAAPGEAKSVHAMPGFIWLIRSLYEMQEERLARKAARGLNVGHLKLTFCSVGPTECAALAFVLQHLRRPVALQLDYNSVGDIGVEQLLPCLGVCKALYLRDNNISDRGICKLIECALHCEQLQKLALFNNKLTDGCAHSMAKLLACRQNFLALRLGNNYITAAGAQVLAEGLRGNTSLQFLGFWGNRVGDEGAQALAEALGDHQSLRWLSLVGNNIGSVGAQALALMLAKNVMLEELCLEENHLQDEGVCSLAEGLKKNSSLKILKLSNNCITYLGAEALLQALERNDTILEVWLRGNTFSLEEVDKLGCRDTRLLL

[19] = test system: HEK293; assay: cells; assay type: functional, cell-based; conditions: Homo sapiens; remark: listed apart in the source

In the case of `CC(CC1CC(C)(C)OC1=O)C(=O)Nc1ccc([N+](=O)[O-])cc1` (centres undefined), the CC50 [1] is reported as > 99 µM (not active).

In the case of `Cc1cccc(-n2c(=S)[nH]c3sc4c(c3c2=O)CCc2ccccc2-4)c1`, the EC50 [2] is reported as > 79.4 µM (not active), the IC50 [3] is reported as > 50 µM (not active) and the IC50 [4] is reported as > 80 µM (inactive). The EC50 [5] was > 79.4 µM (not active), the EC50 [6] was > 79.4 µM (inactive) and the IC50 [7] was 36.3 µM (active).

For `Cc1ccc(NC(=O)C(c2ccccc2)C2CCCC2)cc1` (centres undefined), the IC50 [8] was 7.06 µM (active) and the IC50 [9] was 2.43 µM (active).

In the case of `COc1ccc(S(=O)(=O)Nc2ccccc2C(=O)Nc2nc(-c3ccc(F)cc3)cs2)cc1OC`, the IC50 [10] is reported as 4.41 µM (active).

For `CC1(C)CC(N2CCCCCC2)=CC(=[N+]2CCCC2)C1`, the IC50 [11] was 16.4 µM (inactive), the EC50 [12] was 4.99 µM (active) and the IC50 [13] was > 35 µM (not active). The EC50 [14] was > 150 µM (inactive), the IC50 [15] was > 20 µM (inactive) and the IC50 [16] was > 35 µM (not active). For the same molecule, the IC50 [17] was > 20 µM (inactive), the EC50 [18] was 17.5 µM (active) and the IC50 [19] was 8.01 µM (active).
